Among the test systems are MOLT-4 leukemia; HOP-92 NSCLC; OVCAR-8 ovarian; U251 CNS; HCT-15 colon; SF-268 CNS; HOP-62 NSCLC; HCC-2998 colon; HCT-116 colon; SK-MEL-5 melanoma.
Common to all, as to assay: NCI anticancer screen, dose series, 48 h

The structures appear in SMILES notation. “And” between values parts separate entries of the source, which are not always exact repeats. Identical values can stand only once.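 Assay format: 96-well plates, 48-hour exposure. Here, GI50 denotes the concentration required for 50% inhibition of growth. Definition used: TGI = concentration required for complete inhibition of growth.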

Take `Cc1nc2sc(C(=O)Nc3cccc(Cl)c3)c(N)c2cc1C(O)c1ccccc1` (configuration not stated): the GI50 with MOLT-4 leukemia was 0.611 µM; in the test with HOP-92 NSCLC it was 10.4 µM; in the test with OVCAR-8 ovarian, 2.51 µM; in the test on U251 CNS, 0.584 µM; in the test with HCT-15 colon, 0.384 µM; in the test with SF-268 CNS it was 2.66 µM. The GI50 with HOP-62 NSCLC is 1.45 µM; in the test on HCC-2998 colon, 1.98 µM; in the test with HCT-116 colon it was 0.426 µM; with SK-MEL-5 melanoma, 0.622 µM. The TGI in the test on MOLT-4 leukemia is above 100 µM; with HOP-92 NSCLC, 31.3 µM; in the test on OVCAR-8 ovarian, above 100 µM; in the test with U251 CNS, above 100 µM; with HCT-15 colon, 46.8 µM; with SF-268 CNS it was 28.3 µM. The TGI in the test with HOP-62 NSCLC was 25.5 µM; in the test with HCC-2998 colon, 10.5 µM; in the test on HCT-116 colon, above 100 µM; with SK-MEL-5 melanoma, 2.2 µM.

On to `Fc1cccc(C2ON=C(c3ccccc3)N2C23CC4CC(CC(C4)C2)C3)c1` (configuration not stated), for which the TGI in the test on MOLT-4 leukemia, in the test on HOP-92 NSCLC, with OVCAR-8 ovarian, in the test on U251 CNS, with HCT-15 colon and in the test on SF-268 CNS was above 10 µM in each case. Further, the TGI with HOP-62 NSCLC, in the test on HCC-2998 colon, in the test with HCT-116 colon and in the test with SK-MEL-5 melanoma was above 10 µM each time.

`Nc1nc2c(ncn2C2OC(CO)C(O)C2O)c(=O)[nH]1` (configuration not stated): the GI50 is 35.7 µM with MOLT-4 leukemia; > 100 µM and 82.5 µM in the test with HOP-92 NSCLC; > 100 µM and 15 µM with OVCAR-8 ovarian; above 100 µM in the test with U251 CNS; > 100 µM and 20.7 µM with HCT-15 colon; above 100 µM in the test on SF-268 CNS. Moreover, the GI50 in the test on HCC-2998 colon was 78.7 µM; in the test with HCT-116 colon, above 100 µM; in the test on SK-MEL-5 melanoma, above 100 µM. Further, the TGI with MOLT-4 leukemia was > 100 µM and 121 µM; in the test on HOP-92 NSCLC it was > 100 µM and 263 µM; in the test with OVCAR-8 ovarian, > 100 µM and 204 µM; with U251 CNS, > 100 µM and 237 µM; in the test with HCT-15 colon, > 100 µM and 191 µM; in the test on SF-268 CNS, > 100 µM and 281 µM. Moreover, the TGI with HOP-62 NSCLC was 211 µM; in the test on HCC-2998 colon, > 100 µM and 245 µM; in the test with HCT-116 colon, > 100 µM and 201 µM; in the test on SK-MEL-5 melanoma, > 100 µM and 103 µM.

With `COc1cc(/C=C/C(=O)/C=C/c2ccc(-n3ccnc3)cc2)ccc1O`, the GI50 in the test with MOLT-4 leukemia is 3.22 µM; in the test on HOP-92 NSCLC, 10.5 µM; in the test with OVCAR-8 ovarian, 3.58 µM; with U251 CNS, 2.21 µM; in the test with HCT-15 colon, 2.48 µM; in the test on SF-268 CNS, 3.08 µM. Besides, the GI50 in the test on HOP-62 NSCLC was 3.12 µM; in the test on HCC-2998 colon, 1.79 µM; in the test with HCT-116 colon, 1.45 µM; with SK-MEL-5 melanoma it was 3.43 µM. Further, the TGI with MOLT-4 leukemia is 42.8 µM; with HOP-92 NSCLC, 27.1 µM; in the test with OVCAR-8 ovarian it was above 100 µM; with U251 CNS, 5.24 µM; in the test with HCT-15 colon, 6.89 µM; with SF-268 CNS it was 16.2 µM. Also, the TGI in the test with HOP-62 NSCLC amounted to 11.8 µM; in the test on HCC-2998 colon it was 3.42 µM; in the test on HCT-116 colon it was 2.93 µM; in the test on SK-MEL-5 melanoma, 12 µM.

With `O=C1Cc2c([nH]c3ccccc23)-c2cc(Br)ccc2N1`, the TGI in the test with MOLT-4 leukemia, in the test with HOP-92 NSCLC, in the test with OVCAR-8 ovarian, in the test on U251 CNS, with HCT-15 colon and in the test on SF-268 CNS was above 100 µM each time. Also, the TGI in the test on HOP-62 NSCLC, with HCC-2998 colon, in the test on HCT-116 colon and in the test on SK-MEL-5 melanoma was above 100 µM throughout.

Take `CCOc1ccccc1NC(=O)C1=C(C)NC(C)=C(C(=O)Nc2ccccc2OCC)C1c1ccc2c(c1)OCO2`: the TGI was 75.3 µM in the test on MOLT-4 leukemia; 56 µM in the test on HOP-92 NSCLC; above 100 µM in the test with OVCAR-8 ovarian; above 100 µM with U251 CNS; above 100 µM with SF-268 CNS; above 100 µM with HOP-62 NSCLC. The TGI in the test with HCC-2998 colon is 54.9 µM; in the test with SK-MEL-5 melanoma, 73.2 µM.

`CN(C)CN(C)c1nc(N(C)C)nc(N(C)C)n1`: the TGI with MOLT-4 leukemia, in the test with HOP-92 NSCLC, in the test with OVCAR-8 ovarian, with U251 CNS, in the test on HCT-15 colon and in the test with SF-268 CNS was above 100 µM each time. Moreover, the TGI with HOP-62 NSCLC, with HCC-2998 colon, in the test with HCT-116 colon and with SK-MEL-5 melanoma was above 100 µM throughout.

In the case of `O=C(O)c1cc2ccc(Cl)cc2c(O)c1C1=CCCCC1`, the TGI in the test with MOLT-4 leukemia is above 100 µM; in the test on HOP-92 NSCLC, 85.9 µM; with OVCAR-8 ovarian it was above 100 µM; in the test with U251 CNS, above 100 µM; in the test with HCT-15 colon, above 100 µM; with SF-268 CNS, above 100 µM. The TGI is above 100 µM in the test with HOP-62 NSCLC, above 100 µM in the test with HCC-2998 colon, above 100 µM in the test with HCT-116 colon and 81.9 µM with SK-MEL-5 melanoma.

On to `O=C([CH-]C(=O)c1ccccc1)c1ccccc1.[CH2-]C.[CH2-]C.[Tl+3]`, for which the GI50 is 6.63 µM with MOLT-4 leukemia; 21.6 µM in the test on HOP-92 NSCLC; 15.7 µM in the test with OVCAR-8 ovarian; 11.8 µM in the test on U251 CNS; 15.4 µM in the test with HCT-15 colon; 18.4 µM in the test on SF-268 CNS. The GI50 was 22.2 µM with HOP-62 NSCLC, 28.7 µM with HCC-2998 colon, 9.72 µM in the test on HCT-116 colon and 16.5 µM with SK-MEL-5 melanoma. Moreover, the TGI is 41.8 µM in the test with MOLT-4 leukemia; above 72.8 µM with HOP-92 NSCLC; above 86.5 µM in the test with OVCAR-8 ovarian; above 100 µM in the test with U251 CNS; above 100 µM with HCT-15 colon; above 100 µM in the test on SF-268 CNS. Further, the TGI in the test on HOP-62 NSCLC was above 90.2 µM; in the test with HCC-2998 colon, above 100 µM; in the test on HCT-116 colon, 34.2 µM; in the test with SK-MEL-5 melanoma, 50.1 µM.

Values taken from PubChem BioAssay (NCI).
